Laboratory results: patent publication US7825139B2, “Compounds and methods for selective inhibition of dipeptidyl peptidase-IV” (Forest Laboratories Holdings Limited (BM), priority 2005, dated 2010)

Columns and labels:
[1] = biological target: T1, DPP-IX (Homo sapiens, UniProt Q86TI2); assay: DPP-IX IC50 assay (Ala-Pro AMC); type: biochemical
T1 construct: The full length cDNAs for human DPP-VII, DPP-VIII, DPP-IX, and FAP were obtained from Open Biosystems; 6xHis (C); made in house
Description: Materials. S9 insect cells and Sf-900 II SFM media were from Invitrogen. Anti-FLAG M2 immunoaffinity gel was from Sigma. Gly-Pro-AMC, Lys-Pro AMC, and Ala-Pro AMC were from Enzyme Systems. IC50 calculations were performed by non-linear regression analysis using Prism software (GraphPad). Preparation of DPP-VII, DPP-VIII, DPP-IX, and FAP baculovirus constructs. The full length cDNAs for human DPP-VII, DPP-VIII, DPP-IX, and FAP were obtained from Open Biosystems. The cDNAs were cloned into the pFastBac vector with the addition of an N-terminal FLAG tag on DPP-VII, C-terminal 6xHis tags on DPP-VIII and DPP-IX, and an N-terminal 6xHis tag on FAP (Sun 2002, Qi 2003, and Chen 2004). Baculovirus was prepared using the Bac-to-Bac Baculovirus Expression System (Invitrogen). The cDNAs in the final baculovirus constructs were sequence verified. Baculovirus expression. S9 cells were grown to mid log phase at 27C with shaking at 125 RPM and then adjusted to 2×10E6/ml just prior to baculovirus infection. Infection with DPP-VII, DPP-VIII, DPP-IX, and FAP baculoviral constructs were all performed at an MOI of 4. […] Recombinant DPPs were diluted in reaction buffer to give fluorescence values of 5000-20000 counts in the “enzyme only wells” 20 min after addition of substrate at 27° C. […] Fluorescence in each well was measured at settings of 380/460 nm. […]

[2] = system: Zucker Obese Fatty rats; assay: Toxicity in rats, oral dosing; type: in vivo, rat; conditions: 5-10 mg/kg, 4-24 hrs post-dose, all Zucker Obese Fatty rats tested
Source text: Toxicity in Rats: The Zucker Diabetic Fatty (ZDF) rat model can be used to investigate the effects of the compounds of the invention on both the treatment and prevention of diabetes as rats of this sub-strain are initially pre-diabetic although they develop severe type 2 diabetes characterized by increased HbAl c levels over a period of 6 weeks. The same strain can be used to predict the clinical efficacy of other anti-diabetic drug types. For example, the model predicts the potency and limited clinical efficacy of thiazolidinedione insulin sensitizer compounds. The experimental protocol requires p.o. (oral gavage) administration of either vehicle or test article at indicated doses either QD or BID using a gastric feeding needle with a ball tip, without anesthesia, using hand restraint to adult rats which have been fasted overnight. Animals are monitored for clinical signs at 1, 2, 4 and 8 hour time intervals following the treatment regimen. Whole blood samples (to a maximum level of 10% of the total blood volume every 2 weeks) were collected from the animals from the retro-orbital sinus in accordance with the guidelines of the IACUC committee.
The expected therapeutic dose level could not be reached for the comparative compounds before acute toxicity was observed.

T1 sequence (Q86TI2 whole entry): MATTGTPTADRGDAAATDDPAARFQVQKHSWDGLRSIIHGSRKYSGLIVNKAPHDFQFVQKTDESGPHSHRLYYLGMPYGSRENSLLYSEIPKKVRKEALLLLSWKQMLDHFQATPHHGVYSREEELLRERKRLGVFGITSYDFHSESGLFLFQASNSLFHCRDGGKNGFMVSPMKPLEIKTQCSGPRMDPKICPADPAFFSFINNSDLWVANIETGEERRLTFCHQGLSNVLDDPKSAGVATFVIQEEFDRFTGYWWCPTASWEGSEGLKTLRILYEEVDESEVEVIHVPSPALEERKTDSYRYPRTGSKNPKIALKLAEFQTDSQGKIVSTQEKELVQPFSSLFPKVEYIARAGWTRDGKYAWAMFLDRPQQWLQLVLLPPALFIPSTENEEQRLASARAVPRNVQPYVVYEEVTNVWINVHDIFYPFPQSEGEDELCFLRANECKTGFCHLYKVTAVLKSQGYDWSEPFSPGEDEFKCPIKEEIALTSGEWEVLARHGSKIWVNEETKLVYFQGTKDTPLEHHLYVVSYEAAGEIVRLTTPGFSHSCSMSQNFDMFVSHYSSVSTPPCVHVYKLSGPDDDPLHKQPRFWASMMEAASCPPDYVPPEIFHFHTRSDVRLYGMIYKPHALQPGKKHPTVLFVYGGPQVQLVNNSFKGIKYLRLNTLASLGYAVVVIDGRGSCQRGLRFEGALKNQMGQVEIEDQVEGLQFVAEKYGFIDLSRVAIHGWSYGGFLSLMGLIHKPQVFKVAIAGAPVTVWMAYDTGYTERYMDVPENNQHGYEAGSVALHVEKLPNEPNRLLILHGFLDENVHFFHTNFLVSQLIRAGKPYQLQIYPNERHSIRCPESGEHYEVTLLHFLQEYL

O=C(CNC1CCCC1)N1CCC[C@H]1B(O)O [Compound 19]
inhibition of DPP-IX (in words) [1]: potent inhibitor
acute toxicity in rats [2]: acute toxicity (death)
